The values below come from patent publication US5278181A, “Soluble alkyl[5-[amino (phenyl)methyl]-1H-benzimidazol-2-yl] carbamate anthelmintics” (priority 1992, dated 1994).

One data set has as its system microfilariae. The settings on record: background art; cited from earlier work.
The subject of a further data set is adult worms. The settings on record: background art; cited from earlier work.
The next data set deals with Acanthocheilonema viteae. Nature of the data set: Antifilarial dual infection screen in jirds: adult A. viteae burden and microfilaremia. Type of data set: in vivo, in Mongolian jirds. The note with it: for % Macrofilarial reduction, A. viteae: day 56. From the text: (§1) Dual infections of the filarial worms Brugia pahangi and Acanthocheilonema viteae in jirds are used routinely for antifilarial screening [McCall, J. W., McTier, T. L., and Rowan, S. J., "In vivo models for evaluating potential antifilarial agents", Onchocerciasis/Filariasis (Proceedings of a Symposium sponsored by the World Health Organization), Kalamazoo, Mich., Apr. 8-10, 23-24 (1986)].
(§2) For this dual infection screen, male Mongolian jirds weighing 50-60 g are infected SC with 10 (5 male and 5 female) adult A. viteae, transplanted under sodium pentobarbital anesthesia (48 mg/kg) from donor hamsters infected SC 8 weeks earlier. Two weeks later, 20 (10 male and 10 female) adult B. pahangi, taken from donor jirds infected IP 8 weeks earlier, are transplanted into the peritoneal cavity of each jird under sodium pentobarbital anesthesia. After an additional week, when the jirds have acceptable levels of microfilaremia, they are randomly allocated to treatment groups of 3 animals each and a nontreated group of 4-6 animals. Microfilaremia is determined on days 0 (just prior to the first dose), 4 and 56 post-treatment. Unless indicated otherwise, compounds are suspended in hydroxyethylcellulose (0.5%) - Tween 80 (0.1%) and administered SC at 100 mg/kg/day for 5 consecutive days. All jirds are killed on day 56 post-treatment to determine the effects of drugs on adults of A. viteae and B. pahangi. Live worms are identified as to species, noted as to sex, and counted. The number of dead and/or encapsulated worms is also recorded. A reduction of ≥80% in microfilaremia or ≥50% in adult worm burden (either species) compared with pre-treatment microfilaremia or non-treated control worm burden, respectively, is considered to be significant. For secondary testing with this dual infection screen, groups of 7 animals each are used. For oral dosing, drugs are dissolved or suspended in hydroxyethylcellulose - Tween 80 and administered by gavage.

The next data set relates to Brugia pahangi. Nature of the data set: Antifilarial dual infection screen in jirds: adult B. pahangi burden. Type of data set: in vivo, in Mongolian jirds. The note with it: day 56.
From the text: as §1, §2

The conditions of data set [1]: background art; cited from earlier work.
For data set [2] the following is noted: background art; cited from earlier work. The source holds these as a separate data set.
The next data set is described as follows: Aqueous solubility. The note with it: water.

Converted amounts (≈) assume the structure as drawn.

By solubility is commonly meant the dissolved amount per volume that the medium holds. The low end stands for a poorly soluble substance, the high end for a readily soluble substance.

Take `CC[C@H](C)[C@H]1O[C@]2(CC[C@@H]1C)C[C@@H]1C[C@@H](C/C=C(\C)[C@@H](O[C@H]3C[C@H](OC)[C@@H](O[C@H]4C[C@H](OC)[C@@H](O)[C@H](C)O4)[C@H](C)O3)[C@@H](C)/C=C/C=C3\CO[C@@H]4[C@H](O)C(C)=C[C@@H](C(=O)O1)[C@]34O)O2` [ivermectin]: the activity against microfilariae entry with microfilariae was “outstanding activity against microfilariae”. The “activity against adult worms (macrofilaricidal)” value (from here on “activity against adult worms”) in the data set with adult worms is “without effect on adult worms”.
For `COC(=O)Nc1nc2cc(C(N)c3ccccc3)ccc2[nH]1` (racemic) [Example 3, Methyl (±)-[5-[Amino (Phenyl)Methyl]-1H-Benzimidazol-2-yl]Carbamate], the “% Microfilarial reduction, A. viteae, Day 4” value in the data set with Acanthocheilonema viteae (100 mg/kg/day × 5 days, oral) was 83%. Also, the “% Microfilarial reduction, A. viteae, Day 56” value with Acanthocheilonema viteae (100 mg/kg/day × 5 days, oral) is reported as 83%. Moreover, the “% Macrofilarial reduction, A. viteae” value with Acanthocheilonema viteae (100 mg/kg/day × 5 days, oral) is recorded as 80%. Also, the “% Macrofilarial reduction, B. pahangi” value in the data set with Brugia pahangi (1.56 mg/kg/day × 5 days, SC) is 23%; in the data set on Brugia pahangi (6.25 mg/kg/day × 5 days, SC) it was 0%; in the data set with Brugia pahangi (25 mg/kg/day × 5 days, SC) it was 75%; in the data set on Brugia pahangi (100 mg/kg/day × 5 days, SC), 100%; in the data set with Brugia pahangi (100 mg/kg/day × 5 days, oral), 52%.
With `COC(=O)Nc1nc2ccc(C(=O)c3ccccc3)cc2[nH]1` [mebendazole], the absorption entry in data set [1] is recorded as “poorly absorbed”. Also, in data set [2], the “pain and inflammation on injection” value is “cause pain and inflammation on injection”.
Regarding `COC(=O)Nc1nc2cc(C(=O)c3ccc(F)cc3)ccc2[nH]1` [Flubendazole, methyl [5-(4-fluorobenzoyl)-1H-benzimidazol-2-yl]carbamate], the absorption entry in data set [1] is on record as “poorly absorbed”. Further, in data set [2], the “pain and inflammation on injection” value was “cause pain and inflammation on injection”. This compound also displayed a solubility in the data set “Aqueous solubility” of 45 µg/mL (≈ 144 µM).
On to `COC(=O)Nc1nc2cc(C(N)c3ccccc3)ccc2[nH]1.Cl.Cl` (racemic) [Example 4, Methyl (±)-[5-[Amino (Phenyl)Methyl]-1H-Benzimidazol-2-yl]Carbamate Dihydrochloride Salt], for which the “% Microfilarial reduction, A. viteae, Day 4” value came to 75% in the data set on Acanthocheilonema viteae (3.13 mg/kg/day × 5 days, SC); 67% with Acanthocheilonema viteae (6.25 mg/kg/day × 5 days, SC); 88% in the data set with Acanthocheilonema viteae (12.5 mg/kg/day × 5 days, SC); 91% in the data set on Acanthocheilonema viteae (100 mg/kg/day × 5 days, oral); 67% in the data set on Acanthocheilonema viteae (200 mg/kg/day × 5 days, oral). The “% Microfilarial reduction, A. viteae, Day 56” value came to 50% in the data set on Acanthocheilonema viteae (3.13 mg/kg/day × 5 days, SC); 67% in the data set on Acanthocheilonema viteae (6.25 mg/kg/day × 5 days, SC); 50% with Acanthocheilonema viteae (12.5 mg/kg/day × 5 days, SC); 91% in the data set on Acanthocheilonema viteae (100 mg/kg/day × 5 days, oral); 100% in the data set on Acanthocheilonema viteae (200 mg/kg/day × 5 days, oral). Moreover, the “% Macrofilarial reduction, A. viteae” value in the data set on Acanthocheilonema viteae (3.13 mg/kg/day × 5 days, SC) stood at 9%; in the data set with Acanthocheilonema viteae (6.25 mg/kg/day × 5 days, SC), 27%; in the data set with Acanthocheilonema viteae (12.5 mg/kg/day × 5 days, SC), 31%; in the data set on Acanthocheilonema viteae (100 mg/kg/day × 5 days, oral), 81%; in the data set with Acanthocheilonema viteae (200 mg/kg/day × 5 days, oral), 100%. The “% Macrofilarial reduction, B. pahangi” value with Brugia pahangi (3.13 mg/kg/day × 5 days, SC) is given as 15%; in the data set with Brugia pahangi (6.25 mg/kg/day × 5 days, SC) it was 14%; in the data set with Brugia pahangi (12.5 mg/kg/day × 5 days, SC) it was 18%; with Brugia pahangi (100 mg/kg/day × 5 days, oral) it was 30%; in the data set on Brugia pahangi (200 mg/kg/day × 5 days, oral), 100%.
Consider `CCN(CC)C(=O)N1CCN(C)CC1` [Diethylcarbamazine], for which the activity against microfilariae result in the data set with microfilariae was “has the ability to destroy microfilariae”. Also, in the data set with adult worms, the “activity against adult worms” value was “kill adults of lymphatic filariae in some, but far from all patients”.
On to `Cc1ccc(C(=O)Nc2ccc(S(=O)(=O)O)c3cc(S(=O)(=O)O)cc(S(=O)(=O)O)c23)cc1NC(=O)c1cccc(NC(=O)Nc2cccc(C(=O)Nc3cc(C(=O)Nc4ccc(S(=O)(=O)O)c5cc(S(=O)(=O)O)cc(S(=O)(=O)O)c45)ccc3C)c2)c1` [Suramin], for which, in the data set with adult worms, the “activity against adult worms” value was “macrofilaricidal action”.
